Assay results published in patent US20120058956A1, “PEPTIDES DERIVED FROM FICOLIN AS SURFACTANTS” (METAMOREFIX LTD., priority 2009, published 2012).

Test: transport of hyaluronic acid through pig skin (Franz cell)
Experimental: Skin samples (stored at −80° C.) were thawed at 4° C. for approximately 15 hr followed by 1 hr at room temperature prior to use. A thawed pig dermatomed skin sample was mounted horizontally on a Franz cell, dermis side down. […] The receptor phase consisted of PBS pH 7.4 with continuous stirring.
A test formulation, formulated as a suspension was applied to the skin and uniformly dispersed over the skin surface at a surface density of at least 1.0 g/cm^2 to insure pseudo-infinite dose conditions. The formulations consisted of a peptide surfactant of the invention together with hyaluronic acid. The formulations used were as described in the following table: […]
The dose chamber was sealed with an occlusive film to prevent loss of any volatile component of the test formulation. […] Each aliquot was replaced with an equal volume of PBS.
The samples were analyzed for the presence of hyaluronic acid by the Carbazole method as is known in the art.

Row | Compound | HA traversed the skin (pH 7.4) | HA traversed the skin (control, surfactant omitted, 5 mg/ml HA, period of 6 hours, Franz cell, receptor PBS pH 7.4, curve 1 in FIG. 1)
1 | CCCCCCCCCCCC(=O)N(C)CC(=O)[O-].[Na+] [NLS, N Lauroyl Sarcosine Sodium salt] | about 65 ?g/cm^2 | 
2 | hyaluronic acid [HA] |  | about 40 ?g/cm^2
